Data published in PubChem BioAssay (NCI).
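96-well plates; 48 h exposure; 5 concentrations. Endpoints by linear interpolation between flanking doses. Not reached: highest tested concentration assigned. TGI marks complete inhibition of growth.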

Experiments:
Experiment in all cases: NCI-60 cell line screen, 48 h
DU-145 prostate = tested on: DU-145 prostate
NCI/ADR-RES ovarian = tested on: NCI/ADR-RES ovarian
TK-10 renal = tested on: TK-10 renal
MDA-MB-435 = tested on: MDA-MB-435
SK-MEL-2 melanoma = tested on: SK-MEL-2 melanoma
SW-620 colon = tested on: SW-620 colon
OVCAR-5 ovarian = tested on: OVCAR-5 ovarian
RXF 393 renal = tested on: RXF 393 renal
OVCAR-4 ovarian = tested on: OVCAR-4 ovarian
MDA-N = tested on: MDA-N
786-0 renal = tested on: 786-0 renal
SNB-75 CNS = tested on: SNB-75 CNS
HOP-62 NSCLC = tested on: HOP-62 NSCLC
MCF7 breast = tested on: MCF7 breast
SR leukemia = tested on: SR leukemia
SK-MEL-5 melanoma = tested on: SK-MEL-5 melanoma
SNB-19 CNS = tested on: SNB-19 CNS
K-562 leukemia = tested on: K-562 leukemia
HT29 colon = tested on: HT29 colon
T-47D breast = tested on: T-47D breast
CAKI-1 renal = tested on: CAKI-1 renal
HCC-2998 colon = tested on: HCC-2998 colon
SF-268 CNS = tested on: SF-268 CNS
HCT-15 colon = tested on: HCT-15 colon
A549 NSCLC = tested on: A549 NSCLC
CCRF-CEM leukemia = tested on: CCRF-CEM leukemia
COLO 205 colon = tested on: COLO 205 colon
SK-MEL-28 melanoma = tested on: SK-MEL-28 melanoma
SF-295 CNS = tested on: SF-295 CNS
HL-60(TB) leukemia = tested on: HL-60(TB) leukemia
U251 CNS = tested on: U251 CNS
M14 melanoma = tested on: M14 melanoma
OVCAR-3 ovarian = tested on: OVCAR-3 ovarian
SF-539 CNS = tested on: SF-539 CNS
OVCAR-8 ovarian = tested on: OVCAR-8 ovarian
UACC-257 melanoma = tested on: UACC-257 melanoma
HOP-92 NSCLC = tested on: HOP-92 NSCLC
HS 578T breast = tested on: HS 578T breast
KM12 colon = tested on: KM12 colon
MALME-3M melanoma = tested on: MALME-3M melanoma
EKVX NSCLC = tested on: EKVX NSCLC
PC-3 prostate = tested on: PC-3 prostate
ACHN renal = tested on: ACHN renal
HCT-116 colon = tested on: HCT-116 colon
MOLT-4 leukemia = tested on: MOLT-4 leukemia
LOX IMVI melanoma = tested on: LOX IMVI melanoma
NCI-H226 lung = tested on: NCI-H226 lung
SN12C renal = tested on: SN12C renal
IGROV1 ovarian = tested on: IGROV1 ovarian
UACC-62 melanoma = tested on: UACC-62 melanoma
NCI-H460 lung = tested on: NCI-H460 lung
MDA-MB-231 breast = tested on: MDA-MB-231 breast
SK-OV-3 ovarian = tested on: SK-OV-3 ovarian
RPMI-8226 leukemia = tested on: RPMI-8226 leukemia
UO-31 renal = tested on: UO-31 renal
NCI-H23 lung = tested on: NCI-H23 lung
NCI-H522 lung = tested on: NCI-H522 lung
A498 renal = tested on: A498 renal

Measured: TGI

CC1(C)C2CC(c3ccncc3)ON2C(C)(C)N1O (stereo not drawn)
> 100 µM: DU-145 prostate | NCI/ADR-RES ovarian | TK-10 renal | MDA-MB-435 | SK-MEL-2 melanoma | SW-620 colon | OVCAR-5 ovarian | RXF 393 renal | OVCAR-4 ovarian | MDA-N | 786-0 renal | SNB-75 CNS | HOP-62 NSCLC | MCF7 breast | SR leukemia | SK-MEL-5 melanoma | SNB-19 CNS | K-562 leukemia | HT29 colon | T-47D breast | CAKI-1 renal | HCC-2998 colon | SF-268 CNS | HCT-15 colon | A549 NSCLC | CCRF-CEM leukemia | COLO 205 colon | SK-MEL-28 melanoma | SF-295 CNS | HL-60(TB) leukemia | U251 CNS | M14 melanoma | OVCAR-3 ovarian | SF-539 CNS | OVCAR-8 ovarian | UACC-257 melanoma | HOP-92 NSCLC | HS 578T breast | KM12 colon | MALME-3M melanoma | EKVX NSCLC | PC-3 prostate | ACHN renal | HCT-116 colon | MOLT-4 leukemia | LOX IMVI melanoma | NCI-H226 lung | SN12C renal | IGROV1 ovarian | UACC-62 melanoma | NCI-H460 lung | MDA-MB-231 breast | SK-OV-3 ovarian | RPMI-8226 leukemia | UO-31 renal | NCI-H23 lung

O=c1[nH]nc(Cc2ccc(Cl)cc2)n1O
> 100 µM: DU-145 prostate | NCI/ADR-RES ovarian | TK-10 renal | MDA-MB-435 | SK-MEL-2 melanoma | SW-620 colon | OVCAR-5 ovarian | RXF 393 renal | OVCAR-4 ovarian | MDA-N | 786-0 renal | HOP-62 NSCLC | MCF7 breast | SR leukemia | SK-MEL-5 melanoma | SNB-19 CNS | K-562 leukemia | HT29 colon | T-47D breast | CAKI-1 renal | HCC-2998 colon | SF-268 CNS | NCI-H522 lung | HCT-15 colon | A549 NSCLC | A498 renal | CCRF-CEM leukemia | COLO 205 colon | SK-MEL-28 melanoma | SF-295 CNS | HL-60(TB) leukemia | U251 CNS | M14 melanoma | OVCAR-3 ovarian | SF-539 CNS | OVCAR-8 ovarian | UACC-257 melanoma | HOP-92 NSCLC | HS 578T breast | KM12 colon | MALME-3M melanoma | EKVX NSCLC | PC-3 prostate | ACHN renal | HCT-116 colon | MOLT-4 leukemia | LOX IMVI melanoma | NCI-H226 lung | SN12C renal | IGROV1 ovarian | UACC-62 melanoma | NCI-H460 lung | MDA-MB-231 breast | SK-OV-3 ovarian | RPMI-8226 leukemia | UO-31 renal | NCI-H23 lung
